Data published in publication PMC9388626, “STUB1 is an intracellular checkpoint for interferon gamma sensing” (Scientific Reports, 2022).

What was measured:
B16-F10 cells [1] = assay: Flow cytometry, surface MHC-I on CRISPR-edited cells with IFNγ; format: cell-based, murine; conditions: for Surface MHC-I relative to Parental (Fig. 1c): Parental = 1.00
Method: Parental, CRISPR-edited or biologic-overexpressed tumour cells were seeded in a cell density of 60,000 (B16-F10), 150,000 (CT26), 100,000 (A375), or 200,000 (A549) per well in 12-well plate filled with 0.8 ml culture media + 10% FBS. After overnight incubation, the culture media were replaced with 1 ml fresh media supplemented with 10% FBS and the designated concentration of the recombinant mouse IFNγ (R&D Systems, #485-MI-100) or recombinant human IFNγ (R&D Systems, #285-IF-100). […]
Cells were dissociated from the wells with 0.25% trypsin (Gibco, 25200056). After rinsing with 0.5 ml PBS, each sample was stained with the LIVE/DEAD Fixable Aqua dead cell staining solution (Life Technologies, L34957) in 100 µl PBS (1:1000 dilution) for 15 min at 4 °C. After rinsing with 2 × 0.5 ml PBS, each sample was stained with the corresponding primary antibody-dye conjugates diluted in 100 µl Pharmingen stain buffer (BD Biosciences, #554657). After 1 h staining at 4 °C, the cells were rinsed with 2 × 2 ml Pharmingen stain buffer and fixed with 4.21% (w/w) formaldehyde (BD Biosciences, #554655). Cells were analyzed on LSRFortessa X-20 (BD Biosciences) with appropiate fluorescence compensation. The data were analyzed using FlowJo. Cells were gated based on FSC and SSC. Single cells were selected using FSC-A and FSC-H and viable cells were selected using LIVE/DEAD signal. Primary antibodies used were: H-2K^b/H-2D^b (FITC, Biolegend, #114606, 1:50 dilution), HLA-A,B,C (FITC, Biolegend, #311404, 1:100 dilution), mouse IFNGR1 (PE, Invitrogen, #12-1191-82, 1:50 dilution), human IFNGR1 (PE, Miltenyi, #130-125-851, 1:50 dilution), mouse IL1R1 (APC, Biolegend, #113509, 1:20 dilution), mouse IL6R (APC, Biolegend, #115812, 1:20 dilution), mouse IFNAR1 (APC, Biolegend, #127314, 1:20 dilution), and mouse GP130 (PE, Biolegend, #149404, 1:100 dilution).

B16-F10 cells [2] = assay: Western blot, protein expression after 24 h IFNγ; format: cell-based, murine
Method: Parental, CRISPR-edited or biologic-overexpressed tumour cells were seeded in a cell density of 60,000 (B16-F10), 150,000 (CT26), 100,000 (A375), or 200,000 (A549) per well in 12-well plate filled with 0.8 ml culture media + 10% FBS. After overnight incubation, the culture media were replaced with 1 ml fresh media supplemented with 10% FBS and the designated concentration of the recombinant mouse IFNγ (R&D Systems, #485-MI-100) or recombinant human IFNγ (R&D Systems, #285-IF-100). The cells were stimulated with the cytokine for 24 h before they were harvested by trypsinization for flow cytometry, western blot, or qPCR analysis (6 h treatment).
Cells were dissociated from the wells with 0.25% trypsin (Gibco, 25200056). After rinsing with 0.5 ml PBS, the cell pellets were lysed with chilled cell lysis buffer (Cell Signaling Technology, #9803) supplemented with Halt protease inhibitor cocktail (Thermo Scientific, #78430) and phosphatase inhibitor (Sigma-Aldrich, # 4906837001) for 30 min with intermittent vortexing. The lysate was transferred into PCR-strip tubes and sonicated in a chilled water bath sonicator (QSonica). Lysates were clarified by centrifugation at 15,000 rpm at 4 °C for 15 min. Protein concentration was determined using BCA protein assay kit (Pierce, #23225). The lysates were mixed with LDS sample buffer (Life Technologies, NP0008) and sample reducing agent (Life Technologies, NP0009), followed by heating at 70 °C for 10 min to fully denature the protein. […] Membrane blots were pre-stained with total protein stain (LI-COR, # 926-11016) and imaged with Odyssey CLx. […] The blots were finally probed, for overnight at 4 °C, with the appropriate primary antibodies diluted in Intercept (TBS) blocking buffer supplemented with 0.1% (v/v) Tween-20, followed by the secondary antibodies (IRDye 800CW donkey anti-rabbit or anti-mouse IgG, LI-COR) for 1 h at room temperature. Fluorescent signals were imaged and quantified using Odyssey CLx and Image Studio v5.0. Primary antibodies used were: STUB1/CHIP (Cell Signaling Technology, #2080, 1:2000 dilution), STAT1 (Cell Signaling Technology, #14995, 1:10,000 dilution), phospho-Tyr701-STAT1 (Cell Signaling Technology, #9167, 1:2000 dilution), STAT2 (Cell Signaling Technology, #72604, 1:2000 dilution), IRF1 (Cell Signaling Technology, #8478, 1:2000 dilution), PSMB8 (Cell Signaling Technology, #13635, 1:2000 dilution), PSMB9 (Abcam, ab184172, 1:10,000 dilution), and PSMB10 (Abcam, ab183506, 1:10,000 dilution).

gStub1 #1 (guide GCATTGCTAAGAAGAAGCGC; chemistry not given here)
Surface MHC-I (Fig. 1b) (B16-F10 cells [1]; IFNg 0.01 ng/ml, replicate 1): 389
Surface MHC-I relative to Parental (Fig. 1c) (B16-F10 cells [1]; IFNg 0.01 ng/ml, replicate 1): 1.67
Surface MHC-I (Fig. 1b) (B16-F10 cells [1]; IFNg 0.01 ng/ml, replicate 2): 629
Surface MHC-I relative to Parental (Fig. 1c) (B16-F10 cells [1]; IFNg 0.01 ng/ml, replicate 2): 1.88
Surface MHC-I (Fig. 1b) (B16-F10 cells [1]; IFNg 0.01 ng/ml, replicate 3): 890
Surface MHC-I relative to Parental (Fig. 1c) (B16-F10 cells [1]; IFNg 0.01 ng/ml, replicate 3): 2.53
Surface MHC-I (Fig. 1b) (B16-F10 cells [1]; IFNg 0.01 ng/ml, replicate 4): 1203
Surface MHC-I relative to Parental (Fig. 1c) (B16-F10 cells [1]; IFNg 0.01 ng/ml, replicate 4): 4.12
Surface MHC-I (Fig. 1b) (B16-F10 cells [1]; IFNg 0.03 ng/ml, replicate 1): 1830
Surface MHC-I relative to Parental (Fig. 1c) (B16-F10 cells [1]; IFNg 0.03 ng/ml, replicate 1): 6.85
Surface MHC-I (Fig. 1b) (B16-F10 cells [1]; IFNg 0.03 ng/ml, replicate 2): 1489
Surface MHC-I relative to Parental (Fig. 1c) (B16-F10 cells [1]; IFNg 0.03 ng/ml, replicate 2): 3.84
Surface MHC-I (Fig. 1b) (B16-F10 cells [1]; IFNg 0.03 ng/ml, replicate 3): 2317
Surface MHC-I relative to Parental (Fig. 1c) (B16-F10 cells [1]; IFNg 0.03 ng/ml, replicate 3): 4.36
Surface MHC-I (Fig. 1b) (B16-F10 cells [1]; IFNg 0.03 ng/ml, replicate 4): 3040
Surface MHC-I relative to Parental (Fig. 1c) (B16-F10 cells [1]; IFNg 0.03 ng/ml, replicate 4): 6.59
Surface MHC-I (Fig. 1b) (B16-F10 cells [1]; IFNg 0.10 ng/ml, replicate 1): 1622
Surface MHC-I relative to Parental (Fig. 1c) (B16-F10 cells [1]; IFNg 0.10 ng/ml, replicate 1): 4.52
Surface MHC-I (Fig. 1b) (B16-F10 cells [1]; IFNg 0.10 ng/ml, replicate 2): 2825
Surface MHC-I relative to Parental (Fig. 1c) (B16-F10 cells [1]; IFNg 0.10 ng/ml, replicate 2): 4.07
Surface MHC-I (Fig. 1b) (B16-F10 cells [1]; IFNg 0.10 ng/ml, replicate 3): 4165
Surface MHC-I relative to Parental (Fig. 1c) (B16-F10 cells [1]; IFNg 0.10 ng/ml, replicate 3): 3.06
Surface MHC-I (Fig. 1b) (B16-F10 cells [1]; IFNg 0.10 ng/ml, replicate 4): 5343
Surface MHC-I relative to Parental (Fig. 1c) (B16-F10 cells [1]; IFNg 0.10 ng/ml, replicate 4): 3.53
Surface MHC-I (Fig. 1b) (B16-F10 cells [1]; IFNg 0.30 ng/ml, replicate 1): 3870
Surface MHC-I relative to Parental (Fig. 1c) (B16-F10 cells [1]; IFNg 0.30 ng/ml, replicate 1): 4.44
Surface MHC-I (Fig. 1b) (B16-F10 cells [1]; IFNg 0.30 ng/ml, replicate 2): 3946
Surface MHC-I relative to Parental (Fig. 1c) (B16-F10 cells [1]; IFNg 0.30 ng/ml, replicate 2): 3.12
Surface MHC-I (Fig. 1b) (B16-F10 cells [1]; IFNg 0.30 ng/ml, replicate 3): 5512
Surface MHC-I relative to Parental (Fig. 1c) (B16-F10 cells [1]; IFNg 0.30 ng/ml, replicate 3): 2.33
Surface MHC-I (Fig. 1b) (B16-F10 cells [1]; IFNg 0.30 ng/ml, replicate 4): 7772
Surface MHC-I relative to Parental (Fig. 1c) (B16-F10 cells [1]; IFNg 0.30 ng/ml, replicate 4): 2.83
Surface MHC-I (Fig. 1b) (B16-F10 cells [1]; IFNg 1.00 ng/ml, replicate 1): 6610
Surface MHC-I relative to Parental (Fig. 1c) (B16-F10 cells [1]; IFNg 1.00 ng/ml, replicate 1): 2.73
Surface MHC-I (Fig. 1b) (B16-F10 cells [1]; IFNg 1.00 ng/ml, replicate 2): 4959
Surface MHC-I relative to Parental (Fig. 1c) (B16-F10 cells [1]; IFNg 1.00 ng/ml, replicate 2): 2.67
Surface MHC-I (Fig. 1b) (B16-F10 cells [1]; IFNg 1.00 ng/ml, replicate 3): 6900
Surface MHC-I relative to Parental (Fig. 1c) (B16-F10 cells [1]; IFNg 1.00 ng/ml, replicate 3): 2.19
Surface MHC-I (Fig. 1b) (B16-F10 cells [1]; IFNg 1.00 ng/ml, replicate 4): 9888
Surface MHC-I relative to Parental (Fig. 1c) (B16-F10 cells [1]; IFNg 1.00 ng/ml, replicate 4): 2.56
Surface MHC-I (Fig. 1b) (B16-F10 cells [1]; IFNg Nil, replicate 1): 267
Surface MHC-I relative to Parental (Fig. 1c) (B16-F10 cells [1]; IFNg Nil, replicate 1): 0.97
Surface MHC-I (Fig. 1b) (B16-F10 cells [1]; IFNg Nil, replicate 2): 322
Surface MHC-I relative to Parental (Fig. 1c) (B16-F10 cells [1]; IFNg Nil, replicate 2): 1.05
Surface MHC-I (Fig. 1b) (B16-F10 cells [1]; IFNg Nil, replicate 3): 345
Surface MHC-I relative to Parental (Fig. 1c) (B16-F10 cells [1]; IFNg Nil, replicate 3): 1.07
Surface MHC-I (Fig. 1b) (B16-F10 cells [1]; IFNg Nil, replicate 4): 296
Surface MHC-I relative to Parental (Fig. 1c) (B16-F10 cells [1]; IFNg Nil, replicate 4): 1.15
PSMB8 (Fig. 1e) (B16-F10 cells [2]; IFNg 0.01 ng/ml): 171356
PSMB9 (Fig. 1e) (B16-F10 cells [2]; IFNg 0.01 ng/ml): 214373
PSMB10 (Fig. 1e) (B16-F10 cells [2]; IFNg 0.01 ng/ml): 83490
STAT1 (Fig. 1e) (B16-F10 cells [2]; IFNg 0.01 ng/ml): 156019
PSMB8 (Fig. 1e) (B16-F10 cells [2]; IFNg 0.03 ng/ml): 202198
PSMB9 (Fig. 1e) (B16-F10 cells [2]; IFNg 0.03 ng/ml): 947224
PSMB10 (Fig. 1e) (B16-F10 cells [2]; IFNg 0.03 ng/ml): 557217
STAT1 (Fig. 1e) (B16-F10 cells [2]; IFNg 0.03 ng/ml): 430481
PSMB8 (Fig. 1e) (B16-F10 cells [2]; IFNg 0.10 ng/ml): 232103
PSMB9 (Fig. 1e) (B16-F10 cells [2]; IFNg 0.10 ng/ml): 2077116
PSMB10 (Fig. 1e) (B16-F10 cells [2]; IFNg 0.10 ng/ml): 2055449
STAT1 (Fig. 1e) (B16-F10 cells [2]; IFNg 0.10 ng/ml): 714350
PSMB8 (Fig. 1e) (B16-F10 cells [2]; IFNg 0.30 ng/ml): 334603
PSMB9 (Fig. 1e) (B16-F10 cells [2]; IFNg 0.30 ng/ml): 3663399
PSMB10 (Fig. 1e) (B16-F10 cells [2]; IFNg 0.30 ng/ml): 3429074
STAT1 (Fig. 1e) (B16-F10 cells [2]; IFNg 0.30 ng/ml): 1243340
PSMB8 (Fig. 1e) (B16-F10 cells [2]; IFNg 1.00 ng/ml): 529221
PSMB9 (Fig. 1e) (B16-F10 cells [2]; IFNg 1.00 ng/ml): 4935730
PSMB10 (Fig. 1e) (B16-F10 cells [2]; IFNg 1.00 ng/ml): 4476630
STAT1 (Fig. 1e) (B16-F10 cells [2]; IFNg 1.00 ng/ml): 1537016
PSMB8 (Fig. 1e) (B16-F10 cells [2]; IFNg Nil): 173338
PSMB9 (Fig. 1e) (B16-F10 cells [2]; IFNg Nil): 17374
PSMB10 (Fig. 1e) (B16-F10 cells [2]; IFNg Nil): 18816
STAT1 (Fig. 1e) (B16-F10 cells [2]; IFNg Nil): 22848
